Test results published in ChEMBL document CHEMBL6177968, “Development of sulfamoylbenzamide-based capsid assembly modulators for hepatitis B virus capsid assembly” (Eur J Med Chem, 2025).

Legend:
[1] = system: Hepatitis B virus; test: Antiviral activity against HBV in human HepG2.2.15 cells assessed as reduction in viral replication incubated for 5 days by real-time PCR analysis; format: functional, organism-based; details: HepG2.2.15, 120 h
[2] = Cytotoxicity in human HepG2.2.15 cells assessed as reduction in cell viability; format: toxicity, cell-based, HepG2 2.2.15
[3] = Selectivity index, ratio of CC50 for cytotoxicity in human HepG2.2.15 cells assessed as reduction in cell viability to EC50 for antiviral activity against HBV in human HepG2.2.15 cells assessed as reduction in viral replication; format: toxicity, cell-based; details: read-out: Ratio CC50/EC50

Structure (SMILES) | EC50 [1] [µM] | CC50 [2] [µM] | selectivity ratio [3]
C[C@@H](CO)NS(=O)(=O)c1cc(C(=O)Nc2ccc(F)c(F)c2)c(N)cc1F | 2.12 | 156 | 73.7
Cc1cc(NC(=O)c2cc(S(=O)(=O)N3CCOCC3)c(F)cc2N)ccc1F | 4.58 | 433 | 94.7
Nc1cc(F)c(S(=O)(=O)N[C@H]2COC(=O)C2)cc1C(=O)Nc1ccc(F)c(C(F)F)c1 | 2.95 | 698 | 237
Nc1cc(F)c(S(=O)(=O)NC2CCC2)cc1C(=O)Nc1ccc(F)c(C(F)F)c1 | 0.18 | 22.8 | 125
COCCNS(=O)(=O)c1cc(C(=O)Nc2ccc(F)c(F)c2)c(N)cc1F | 3.02 | 97 | 32.1
CC1(NS(=O)(=O)c2cc(C(=O)Nc3ccc(F)c(C(F)F)c3)c(N)cc2F)COC1 | 0.06 | 26.1 | 458
Nc1cc(F)c(S(=O)(=O)N2CCS(=O)(=O)CC2)cc1C(=O)Nc1ccc(F)c(C(F)F)c1 | 0.22 | 385 | 1740
Nc1cc(F)c(S(=O)(=O)N2CCOCC2)cc1C(=O)Nc1ccc(F)c(Cl)c1 | > 30 | 198 | 
Nc1cc(F)c(S(=O)(=O)NC2CCOCC2)cc1C(=O)Nc1ccc(F)c(F)c1 | 1.4 | 29.5 | 21.1
Nc1cc(F)c(S(=O)(=O)N2CCOCC2)cc1C(=O)Nc1ccc(F)c(F)c1 | 0.41 | 248 | 610
C[C@H](CO)NS(=O)(=O)c1cc(C(=O)Nc2ccc(F)c(F)c2)c(N)cc1F | 0.69 | 204 | 296
Nc1cc(F)c(S(=O)(=O)N2CC3CCC(C2)O3)cc1C(=O)Nc1ccc(F)c(F)c1 | 0.36 | 14 | 38.5
N#Cc1cc(NC(=O)c2cc(S(=O)(=O)N3CCOCC3)c(F)cc2N)ccc1F | 3.01 | > 900 | > 299
Nc1cc(F)c(S(=O)(=O)NC2CNC2)cc1C(=O)Nc1ccc(F)c(F)c1 | 1.52 | 85.8 | 56.5

Continued, in another order:

EC50 [1] [µM] | Structure (SMILES) | CC50 [2] [µM] | selectivity ratio [3]
0.25 | CC(C)NS(=O)(=O)c1cc(C(=O)Nc2ccc(F)c(F)c2)c(N)cc1F | 9.29 | 36.8
0.25 | Nc1cc(F)c(S(=O)(=O)N2CC3(COC3)C2)cc1C(=O)Nc1ccc(F)c(C(F)F)c1 | > 900 | > 3540
0.22 | Nc1cc(F)c(S(=O)(=O)N2CCCOCC2)cc1C(=O)Nc1ccc(F)c(F)c1 | 10.7 | 48.6
0.16 | Nc1cc(F)c(S(=O)(=O)N2CCOCC2)cc1C(=O)Nc1ccc(F)c(C(F)F)c1 | 681 | 4240
1.19 | Nc1cc(F)c(S(=O)(=O)N2CCNCC2)cc1C(=O)Nc1ccc(F)c(F)c1 | 31.5 | 26.4
0.47 | C[C@@H](NS(=O)(=O)c1cc(C(=O)Nc2ccc(F)c(C(F)F)c2)c(N)cc1F)C1COC1 | 187 | 399
1.61 | Nc1cc(F)c(S(=O)(=O)N[C@@H]2CCOC2=O)cc1C(=O)Nc1ccc(F)c(C(F)F)c1 | 238 | 147
7.52 | Nc1cc(F)c(S(=O)(=O)NC2CCNC2)cc1C(=O)Nc1ccc(F)c(F)c1 (stereo not drawn) | 109 | 14.5
0.05 | Nc1cc(F)c(S(=O)(=O)N2CCCOCC2)cc1C(=O)Nc1ccc(F)c(C(F)F)c1 | 5.14 | 96.2
0.44 | Nc1cc(F)c(S(=O)(=O)N2CC3(COC3)C2)cc1C(=O)Nc1ccc(F)c(F)c1 | 170 | 386
> 30 | Nc1cc(F)c(S(=O)(=O)N[C@@H]2CNC2=O)cc1C(=O)Nc1ccc(F)c(C(F)F)c1 | > 900 | 
